≈ marks a conversion by molar mass, not a printed value.
Assays:
[1] = system: methicillin resistant Staphylococcus aureus strain MRSA 32; experiment: Murine Assay Procedure (in vivo efficacy, MRSA 32 infection); settings: swiss mice infected intraperitoneally with MRSA 32, oral gavage 1 h after infection, repeat dose 3 hrs later, percentage survival on Day 7
Method: Oxazolidinone new chemical entities (NCEs) were evaluated for their in vivo efficacy in a murine infection caused by multi-drug resistant, methicillin resistant Staphylococcus aureus strain, referred to as MRSA 32, a clinical isolate obtained from a hospitalized patient. The procedure used for the murine assay is as follows:
Four weeks old swiss mice of 18-22 gm body weight were infected with MRSA 32 strain suspended in 5% Hog gastric mucin. The infecting dose of bacteria was set at 1-2×10^8 CFU/animal. The infecting dose was administered in 0.5 ml volume injected into peritonial cavity of mice. The treatment with oxazolidinone NCEs was started one hour after infection by administering 100-200 μl of the suspensions of oxazolidinone compounds in 5% Tween 80 by oral gavage. A repeat dose was similarly administered 3 hrs later. Each oxazolidinone NCE was tested at 2-3 different dosages in the range of 2.5 mg/kg to 20 mg/kg. In each dose group 6 mice were included. As an infection control group 12 mice were infected with MRSA 32 strain without giving any treatment. For compounds affording protection of MRSA infected mice, ED50 dosages were calculated on the basis of percentage survival on Day 7 after infection.

[2] = system: Methicilin resistant Staphylococcus aureus 32 (MRSA 32); experiment: Minimum Inhibitory Concentration (MIC) determination, agar dilution; assay type: cell-based; settings: Mueller Hinton agar, 24 hrs at 35° C.
Method: (§1) Overnight grown cultures of Methicilin resistant Staphylococcus aureus 32 (MRSA 32), Methicilin resistant Staphylococcus epidermidis 118 (MRSE 118), Vancomycin resistant enterococci 303 (VRE 303) in Tryptic Soya broth were diluted in Mueller Hinton Broth to give optical density matching with MacFarland tube 0.5 standard. Cultures were further diluted 1:10 in Mueller Hinton broth. Using Denley's multipoint inoculator, 10^4 cells were deposited on Mueller Hinton agar (Difco) containing range of 2 fold dilutions of test compounds. These plates were incubated for 24 hrs at 35° C. and MIC results recorded. MIC is defined as minimum drug concentration that inhibits test organisms. For determining MIC of test compounds against Streptococcus pneumoniae 49619 (SPN 49619) and Streptococcus pyogenes 801 (SPY 801), Mueller Hinton agar containing 5% sheep blood was employed.

[3] = system: Vancomycin resistant enterococci 303 (VRE 303); experiment: as above; assay type: cell-based; settings: Enterococcus, Mueller Hinton agar, 24 hrs at 35° C.
Method: as §1

[4] = system: Methicilin resistant Staphylococcus epidermidis 118 (MRSE 118); experiment: as above; assay type: cell-based; settings: Mueller Hinton agar, 24 hrs at 35° C.
Method: as §1

[5] = system: Streptococcus pneumoniae 49619 (SPN 49619); experiment: Minimum Inhibitory Concentration (MIC) determination, agar with 5% sheep blood; assay type: cell-based; settings: Mueller Hinton agar containing 5% sheep blood
Method: as §1

[6] = system: Streptococcus pyogenes 801 (SPY 801); experiment: as above; assay type: cell-based; settings: Mueller Hinton agar containing 5% sheep blood
Method: as §1

Compound | MIC [2] | MIC [3] | MIC [4] | MIC [5] | MIC [6] | ED50 [1]
CC(=O)NC[C@H]1CN(c2ccc(N3CCC4(CC3)CC4C#N)cc2)C(=O)O1 (mixture of isomers) [Example 96, (1RS,5S)—N-{3-[4-(1-cyano-6-aza-spiro[2.5]oct-6-yl)-phenyl]-2-oxo-oxazolidin-5-ylmethyl}-acetamide] | 4 µg/mL | 8 µg/mL | 2 µg/mL | 4 µg/mL | 4 µg/mL | 5 mg/kg
CC(=O)NC[C@H]1CN(c2ccc(N3CCC4(OCCO4)C(F)C3)c(F)c2)C(=O)O1 (stereo partly drawn) [Example 133, (S)—N-{3-[4-(1,4-dioxa-6-fluoro-8-aza-spiro[4.5]dec-8-yl)-3-fluorophenyl]-2-oxo-oxazolidin-5-ylmethyl}-acetamide] | 4 µg/mL (≈ 9.72 µM) | 4 µg/mL (≈ 9.72 µM) | 2 µg/mL (≈ 4.86 µM) | 2 µg/mL (≈ 4.86 µM) | 2 µg/mL (≈ 4.86 µM) | 5 mg/kg
CC(=O)NC[C@H]1CN(c2cc(F)c(N3CCC4(CC3)OCCO4)c(F)c2)C(=O)O1 [Example 130, (S)—N-{3-[4-(1,4-dioxa-8-aza-spiro[4.5]dec-8-yl)-3,5-difluorophenyl]-2-oxo-oxazolidin-5-ylmethyl}-acetamide] | 4 µg/mL (≈ 9.72 µM) | 4 µg/mL (≈ 9.72 µM) | 2 µg/mL (≈ 4.86 µM) | 2 µg/mL (≈ 4.86 µM) | 2 µg/mL (≈ 4.86 µM) | 5 mg/kg
CS(=O)(=O)OC[C@H]1CN(c2ccc(N3CCC4(CC3)COCO4)c(F)c2)C(=O)O1 [Example 129, (R)—N-{3-[4-(1,3-dioxa-8-aza-spiro[4.5]dec-8-yl)-3-fluorophenyl]-2-oxo-oxazolidin-5-ylmethyl}-methanesulfonate] | 8 µg/mL (≈ 18.6 µM) | 16 µg/mL (≈ 37.2 µM) | 4 µg/mL (≈ 9.29 µM) | 8 µg/mL (≈ 18.6 µM) | 8 µg/mL (≈ 18.6 µM) | 5 mg/kg
CC(=O)NC[C@H]1CN(c2ccc(N3CCC(F)(CC#N)CC3)c(F)c2)C(=O)O1 [Example 2, (S)—N-{3-[4-(4-Fluoro-4-cyanomethylpiperidin-1-yl)-3-fluorophenyl]-2-oxo-oxazolidin-5-ylmethyl}-acetamide] | 1 µg/mL (≈ 2.55 µM) | 1 µg/mL (≈ 2.55 µM) | 0.5 µg/mL (≈ 1.27 µM) | 0.5 µg/mL (≈ 1.27 µM) | 1 µg/mL (≈ 2.55 µM) | 2.5 mg/kg

Further lines, with some results ahead:

MIC [2] | MIC [3] | MIC [4] | MIC [5] | MIC [6] | Compound | ED50 [1]
2 µg/mL (≈ 5.18 µM) | 2 µg/mL (≈ 5.18 µM) | 1 µg/mL (≈ 2.59 µM) | 0.5 µg/mL (≈ 1.29 µM) | 0.5 µg/mL (≈ 1.29 µM) | CC(=O)NC[C@H]1CN(c2ccc(N3CCC4(CC3)C[C@@H]4C#N)c(F)c2)C(=O)O1 [Example 99, (1S,5S)—N-{3-[4-(1-cyano-6-aza-spiro[2.5]oct-6-yl)-3-fluorophenyl]-2-oxo-oxazolidin-5-ylmethyl}-acetamide] | 5 mg/kg
4 µg/mL (≈ 10.9 µM) | 4 µg/mL (≈ 10.9 µM) | 2 µg/mL (≈ 5.44 µM) | 2 µg/mL (≈ 5.44 µM) | 2 µg/mL (≈ 5.44 µM) | CC(=O)NC[C@H]1CN(c2ccc(N3CCC(C)(F)CC3)c(F)c2)C(=O)O1 [Example 1, (S)—N-{3-[4-(4-Fluoro-4-methylpiperidin-1-yl)-3-fluorophenyl]-2-oxo-oxazolidin-5-ylmethyl}-acetamide] | 10 mg/kg
1 µg/mL (≈ 2.03 µM) | 2 µg/mL (≈ 4.05 µM) | 1 µg/mL (≈ 2.03 µM) | 1 µg/mL (≈ 2.03 µM) | 1 µg/mL (≈ 2.03 µM) | CC(=O)NC[C@H]1CN(c2ccc(N3CCC(F)(CI)CC3)c(F)c2)C(=O)O1 [Example 15, (S)—N-{3-[4-(4-Fluoro-4-iodomethylpiperidin-1-yl)-3-fluorophenyl]-2-oxo-oxazolidin-5-ylmethyl}-acetamide] | 10 mg/kg
4 µg/mL (≈ 9.47 µM) | 4 µg/mL (≈ 9.47 µM) | 1 µg/mL (≈ 2.37 µM) | 2 µg/mL (≈ 4.73 µM) | 2 µg/mL (≈ 4.73 µM) | CC(=O)NC[C@H]1CN(c2ccc(N3CCC4(CC3)SCCN4C)c(F)c2)C(=O)O1 [Example 113, (S)—N-{3-[4-(8-aza-1-thia-4-(N-methyl)-spiro[4.5]dec-8-yl)-3-fluorophenyl]-2-oxo-oxazolidin-5-ylmethyl}-acetamide] | 10 mg/kg
